Assay results taken from PubChem BioAssay AID192 (DTP/NCI, 2004).
Where “and” joins values, the source holds several entries; their conditions need not be identical. Equal values may be shown once. Toxic doses and inconclusive results are not listed.

Test system: BDF1 mice, B16 melanoma ip, median survival T/C
Experiment: NCI In Vivo Anticancer Drug Screen. Data for tumor model B16 Melanoma (intraperitoneal) in B6D2F1 (BDF1) mice
Details: endpoint: median survival time, higher = longer survival
Outline: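 Read-out: survival or tumor size, given as treated/control ratio. Controls received vehicle only; animals bore transplantable tumors.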

[1] = dose: 6.25 mg/kg/injection, schedule: Q01DX009 (ip), vehicle: saline
[2] = dose: 12.5 mg/kg/injection, schedule: Q01DX009 (ip), vehicle: saline
[3] = dose: 25.0 mg/kg/injection, schedule: Q01DX009 (ip), vehicle: saline
[4] = dose: 50.0 mg/kg/injection, schedule: Q01DX009 (ip), vehicle: saline
[5] = dose: 12.5 mg/kg/injection, schedule: Q01DX009 (ip), vehicle: saline with Tween-80
[6] = dose: 25.0 mg/kg/injection, schedule: Q01DX009 (ip), vehicle: saline with Tween-80

OCCNCCN1CCN(CCCN2c3ccccc3Sc3ccc(C(F)(F)F)cc32)CC1
T/C (dose: 3.12 mg/kg/injection, schedule: Q01DX009 (ip), vehicle: saline): 108 % of control
T/C [1]: 102 % of control
T/C [2]: 100 % of control
T/C [3]: 92 % of control

c1ccc(CSc2ncnc3nc[nH]c23)cc1
T/C (dose: 25.0 mg/kg/injection, schedule: Q01DX009 (ip), vehicle: Klucel (hydroxypropylcellulose) (HPC)): 95 % of control
T/C (dose: 25.0 mg/kg/injection, schedule: Q04DX003 (ip), vehicle: Klucel (hydroxypropylcellulose) (HPC)): 95 % of control
T/C (dose: 50.0 mg/kg/injection, schedule: Q04DX003 (ip), vehicle: Klucel (hydroxypropylcellulose) (HPC)): 100 % of control
T/C (dose: 100.0 mg/kg/injection, schedule: Q04DX003 (ip), vehicle: Klucel (hydroxypropylcellulose) (HPC)): 97 % of control

CC[C@]1(O)C[C@H](OC2CC(N(C)C)C(OC3CC(O)C(O)C(C)O3)C(C)O2)c2c(cc3c(c2O)C(=O)c2c(O)ccc(O)c2C3=O)[C@H]1C(=O)OC (stereo partly specified)
T/C (dose: 0.2 mg/kg/injection, schedule: Q01DX009 (ip), vehicle: carboxymethylcellulose (CMC)): 113 % of control
T/C (dose: 0.25 mg/kg/injection, schedule: Q01DX009 (ip), vehicle: saline with Tween-80): 120 % of control
T/C (dose: 0.4 mg/kg/injection, schedule: Q01DX009 (ip), vehicle: carboxymethylcellulose (CMC)): 94 % of control
T/C (dose: 1.0 mg/kg/injection, schedule: Q01DX009 (ip), vehicle: saline with Tween-80): 159 % of control
T/C (dose: 2.0 mg/kg/injection, schedule: Q01DX009 (ip), vehicle: saline with Tween-80): 179 % of control

FC(F)(F)c1ccc2c(c1)N(CCCN1CCN(CCN3CCCCC3)CC1)c1ccccc1S2
T/C (dose: 0.78 mg/kg/injection, schedule: Q01DX009 (ip), vehicle: saline): 100 % of control
T/C (dose: 1.56 mg/kg/injection, schedule: Q01DX009 (ip), vehicle: saline): 105 % of control
T/C [1]: 97 % of control

COc1ccc(CCN2CSC(=S)N(CCc3ccc(OC)c(OC)c3)C2)cc1OC
T/C (dose: 100.0 mg/kg/injection, schedule: Q01DX009 (ip), vehicle: Klucel (hydroxypropylcellulose) (HPC)): 106 % of control
T/C (dose: 200.0 mg/kg/injection, schedule: Q01DX009 (ip), vehicle: Klucel (hydroxypropylcellulose) (HPC)): 95 % of control
T/C (dose: 400.0 mg/kg/injection, schedule: Q01DX009 (ip), vehicle: Klucel (hydroxypropylcellulose) (HPC)): 95 % of control

O=C(Nc1ccccc1)OCC(CN1CCCCC1)OC(=O)Nc1ccccc1 (stereo unspecified)
T/C (dose: 50.0 mg/kg/injection, schedule: Q04DX003 (ip), vehicle: saline with Tween-80): 104 % of control
T/C (dose: 100.0 mg/kg/injection, schedule: Q04DX003 (ip), vehicle: saline with Tween-80): 102 % of control
T/C (dose: 200.0 mg/kg/injection, schedule: Q04DX003 (ip), vehicle: saline with Tween-80): 100 % of control

O=[As](O)(O)c1ccc(Nc2nc(Cl)nc(Cl)n2)cc1
T/C (dose: 3.13 mg/kg/injection, schedule: Q01DX009 (ip), vehicle: Klucel (hydroxypropylcellulose) (HPC)): 100 % of control
T/C (dose: 6.25 mg/kg/injection, schedule: Q01DX009 (ip), vehicle: Klucel (hydroxypropylcellulose) (HPC)): 110 % of control

CCC(C)C1NC(=O)C(NC(=O)c2c3[nH]c4c(C(=O)NC5C(=O)NC(C(C)CC)C(=O)N6CCCC6C(=O)N(C)CC(=O)N(C)C(C(C)C)C(=O)OC5C)ccc(C)c4oc-3c(C)c(=O)c2=O)C(C)OC(=O)C(C(C)C)N(C)C(=O)CN(C)C(=O)C2CCCN2C1=O (stereo unspecified)
T/C (dose: 0.05 mg/kg/injection, schedule: Q01DX009 (ip), vehicle: water): 98 % of control
T/C (dose: 0.1 mg/kg/injection, schedule: Q01DX009 (ip), vehicle: water): 102 % of control
T/C (dose: 0.2 mg/kg/injection, schedule: Q01DX009 (ip), vehicle: water): 97 % of control
T/C (dose: 0.4 mg/kg/injection, schedule: Q01DX009 (ip), vehicle: water): 103 % of control
T/C (dose: 0.8 mg/kg/injection, schedule: Q01DX009 (ip), vehicle: water): 100 % of control
T/C (dose: 1.6 mg/kg/injection, schedule: Q01DX009 (ip), vehicle: water): 101 % of control

CC(=O)OC1C(CO)OC2C1Oc1nc(=N)c(F)cn12 (stereo unspecified)
T/C (dose: 3.13 mg/kg/injection, schedule: Q01DX009 (ip), vehicle: saline): 88 % of control
T/C [1]: 93 % of control
T/C [2]: 90 % of control
T/C [3]: 86 % of control
T/C [4]: 91 % of control

CN=S(=O)(OCCCCCOS(=O)(=NC)c1ccccc1)c1ccccc1 (stereo unspecified)
T/C (dose: 1.5 mg/kg/injection, schedule: Q01DX009 (ip), vehicle: saline with Tween-80): 111 % of control
T/C (dose: 3.0 mg/kg/injection, schedule: Q01DX009 (ip), vehicle: saline with Tween-80): 104 % of control
T/C (dose: 6.0 mg/kg/injection, schedule: Q01DX009 (ip), vehicle: saline with Tween-80): 122 % of control
T/C [5]: 94 % of control
T/C (dose: 24.0 mg/kg/injection, schedule: Q01DX009 (ip), vehicle: saline with Tween-80): 169 % of control
T/C [6]: 122 % of control

CC(C)=CCNc1ncnc2c1ncn2C1OC(CO)C(O)C1O (stereo unspecified)
T/C (dose: 6.25 mg/kg/injection, schedule: Q01DX009 (ip), vehicle: saline with Tween-80): 102 % of control
T/C [1]: 101 % of control
T/C [5]: 103 % of control
T/C [2]: 96 % of control
T/C [6]: 87 % of control and 107 % of control
T/C [3]: 103 % of control
T/C (dose: 50.0 mg/kg/injection, schedule: Q01DX009 (ip), vehicle: saline with Tween-80): 87 % of control and 98 % of control
T/C [4]: 93 % of control
T/C (dose: 100.0 mg/kg/injection, schedule: Q01DX009 (ip), vehicle: saline with Tween-80): 97 % of control
T/C (dose: 100.0 mg/kg/injection, schedule: Q01DX009 (ip), vehicle: saline): 115 % of control
